{"source": "patent EP1510220B1", "about": "(priority 1993, dated 1994)", "key": {"TGF-beta [1]": {"test_system": "TGF-beta", "experiment": "Sandwich ELISA for total latent plus active TGF-beta, rat vascular smooth muscle cell conditioned medium", "assay_type": "cell-based", "description": "The total latent and active TGF-beta present was determined by a sandwich ELISA. Maxisorb 96-well ELISA plates (available from Gibco) were coated with neutralizing antiserum against TGF-beta (BDA19; available from R & D Systems) at 2 micrograms/cm^2 in phosphate buffered saline (PBS) overnight at room temperature. The plates were washed between each step with tris-buffered saline containing 0.1% Triton X-100 (available from Sigma Chemical Company). The plates were incubated with samples for 2 hours, with a second antibody to TGF-beta (BDA5; available from R & D Systems) at 0.1 micrograms/ml for 2 hours, anti-rabbit IgG peroxidase conjugated to antibody (available from Sigma Chemical Co.), made up according to manufacturer's instructions, for 15 minutes. Absorbances at 492 nm were converted into quantities of TGF-beta protein using a standard curve. Both conditioned media and standards were assayed in the presence of 10% FCS in DMEM. This assay was linear for TGF-beta concentrations in the range from 0.1 ng/ml to 20 ng/ml in the presence of 10% FCS in DMEM."}, "Rat aortic SMCs": {"test_system": "Rat aortic SMCs", "experiment": "Wound migration assay on confluent SMC", "assay_type": "cell-based", "description": "Cell culture. Rat aortic SMCs from 12-20 week old Wistar male rats were prepared by enzyme dispersion, as described in Example 7. The cultured cells were confirmed as >99% SMC by staining for SM-MHC, and proliferated with a cell cycle time of 36 h. Cells were passaged as described in Example 7, and were used either in primary culture or between passages 6-12.\nMigration. Migration was assayed using SMC grown to confluence on glass coverslips. A defined injury is performed on the confluent layer of cells, which are allowed to recover in D-MEM + 10% FCS for 24 h. Bromodeoxyuridine (10 µM) is added between 18-24 h, to label proliferating cells. Cells migrating past the boundary of the wound edge at 24 h are detected by propidium iodide (PI) staining of the cell nuclei (500 µM PI in PBS + 0.5% NP-40 for 30 min at room temperature). Cells that synthesized DNA were detected by antibody staining for bromodeoxyuridine using fluorescein-conjugated anti-bromodeoxyuridine antibodies. Migrating and proliferating cells in each field of view were simultaneously counted by image analysis of the rhodamine emission from PI and fluorescein emission from bromodeoxyuridine."}, "TGF-beta1 mRNA": {"test_system": "TGF-beta1 mRNA", "conditions": "vascular smooth muscle cells, 24 h, 10 µM"}, "TGF-beta [2]": {"test_system": "TGF-beta", "experiment": "TGF-beta activity in medium conditioned on rat vascular smooth muscle cells (MvLu cell assay)", "assay_type": "cell-based", "conditions": "cells treated for 96 hours in 10% FCS", "description": "Assays for TGF-Beta. The TGF-beta activity present in medium conditioned on various cells was determined by DNA synthesis assay on mink lung […] (MvLu) cells; a modification of the assay described in Danielpour et al., J. Cell. Physiol., 138: 79-83, 1989. MvLu cells were subcultured at 1:5 dilution in DMEM + 10% FCS. After 24 hours, the medium was replaced with the conditioned medium to be tested in the absence or presence of the neutralizing antiserum to TGF-beta at 10 micrograms/ml. DNA synthesis during a 1 hour pulse of [^3H]-thymidine (5 microcuries/ml) was determined 23 hours after addition of the test medium. TGF-beta activity was calculated as the proportion of the inhibition of DNA synthesis which was reversed in the presence of neutralizing antibody, using a standard curve to convert the inhibition values into quantities of TGF-beta. The TGF-beta1 standards and conditioned media both contained 10% FCS in DMEM."}, "[3]": {"test_system": "B054 cells (baboon smooth muscle cells)", "experiment": "cells", "assay_type": "cell-based"}, "[4]": {"test_system": "Vascular smooth muscle cells"}}, "note": "Like-named read-outs stand apart in the source and are kept apart here."}
{"compound": "CC/C(=C(\\c1ccccc1)c1ccc(OCCN(C)C)cc1)c1ccccc1", "note": "[tamoxifen, trans-2-[4-(1,2-diphenyl-1-butenyl)phenoxy]-N,N-dimethylethylamine]", "values": [{"measurement": "proportion of the TGF-beta present in active form", "setting": "TGF-beta [1]; 50 micromolar, 96 hours, vehicle < 5%", "value": "approximately 35%"}, {"measurement": "fold induction at 50 µM", "setting": "TGF-beta [1]; Rattus norvegicus, 96 h, read-out: increase of total TGF-beta protein present", "value": "~4"}, {"measurement": "inhibition at 10 µM", "setting": "Rat aortic SMCs; Rattus norvegicus, added at the time of wounding, TGF-beta-1 10 ng/ml, tamoxifen 10 µM, 24 h, read-out: less cells crossed the boundary of the wound", "value": "~90", "unit": "%"}, {"measurement": "entry into DNA synthesis stimulated upon wounding", "setting": "Rat aortic SMCs; bromodeoxyuridine labeling", "value": "did not significantly inhibit"}, {"measurement": "increase of TGF-beta1 mRNA", "setting": "TGF-beta1 mRNA", "value": "approximately 10 fold"}, {"measurement": "increase of TGF-beta activity in the medium", "setting": "TGF-beta [2]", "value": "> 50", "unit": "fold"}]}
{"compound": "cytochalasin B", "values": [{"measurement": "minimum effective dose (MED), DNA assay", "setting": "[3]; 5 minute exposure", "value": 10, "unit": "µg/mL"}, {"measurement": "minimum effective dose (MED), DNA synthesis assay", "setting": "[3]; 24 hour exposure", "value": 0.1, "unit": "µg/mL"}, {"measurement": "morphological cytotoxicity grade", "setting": "[4]; 0.01ug, 24 hrs + 24 hrs", "value": 0}, {"measurement": "morphological cytotoxicity grade", "setting": "[4]; 0.01ug, 24 hrs + 48 hrs", "value": 0}, {"measurement": "morphological cytotoxicity grade", "setting": "[4]; 0.01ug, 24 hrs + 72 hrs", "value": 0}, {"measurement": "morphological cytotoxicity grade", "setting": "[4]; 0.01ug, 24 hrs + 96 hrs", "value": 0}, {"measurement": "morphological cytotoxicity grade", "setting": "[4]; 0.01ug, 24 hrs + 120 hrs", "value": 0}, {"measurement": "morphological cytotoxicity grade", "setting": "[4]; 0.01ug, Continuous 6 hrs", "value": 0}, {"measurement": "morphological cytotoxicity grade", "setting": "[4]; 0.01ug, Continuous 24 hrs (r11, 24 hr exposure series)", "value": 0}, {"measurement": "morphological cytotoxicity grade", "setting": "[4]; 0.01ug, Continuous 24 hrs (r17, long term continuous series)", "value": 0}, {"measurement": "morphological cytotoxicity grade", "setting": "[4]; 0.01ug, Continuous 48 hrs", "value": 0}, {"measurement": "morphological cytotoxicity grade", "setting": "[4]; 0.01ug, Continuous 72 hrs", "value": 0}, {"measurement": "morphological cytotoxicity grade", "setting": "[4]; 0.01ug, Continuous 96 hrs", "value": 0}, {"measurement": "morphological cytotoxicity grade", "setting": "[4]; 0.01ug, Continuous 120 hrs", "value": 0}, {"measurement": "morphological cytotoxicity grade", "setting": "[4]; 0.01ug, Continuous 168 hrs", "value": 0}, {"measurement": "morphological cytotoxicity grade", "setting": "[4]; 0.01ug, Continuous 216 hrs", "value": 0}, {"measurement": "morphological cytotoxicity grade", "setting": "[4]; 0.01ug, Continuous 264 hrs", "value": 0}, {"measurement": "morphological cytotoxicity grade", "setting": "[4]; 0.1 ug, 5 min + 2 hrs", "value": 0}, {"measurement": "morphological cytotoxicity grade", "setting": "[4]; 0.1 ug, 5 min + 6 hrs", "value": 0}, {"measurement": "morphological cytotoxicity grade", "setting": "[4]; 0.1 ug, 5 min + 24 hrs", "value": 0}, {"measurement": "morphological cytotoxicity grade", "setting": "[4]; 0.1 ug, 5 min + 48 hrs", "value": 0}, {"measurement": "morphological cytotoxicity grade", "setting": "[4]; 0.1 ug, 5 min + 72 hrs", "value": 0}, {"measurement": "morphological cytotoxicity grade", "setting": "[4]; 0.1 ug, 5 min + 96 hrs", "value": 0}, {"measurement": "morphological cytotoxicity grade", "setting": "[4]; 0.1 ug, 5 min + 120 hrs", "value": 0}, {"measurement": "morphological cytotoxicity grade", "setting": "[4]; 0.1 ug, 24 hrs + 24 hrs", "value": 0.5}, {"measurement": "morphological cytotoxicity grade", "setting": "[4]; 0.1 ug, 24 hrs + 48 hrs", "value": 1}, {"measurement": "morphological cytotoxicity grade", "setting": "[4]; 0.1 ug, 24 hrs + 72 hrs", "value": 0.5}, {"measurement": "morphological cytotoxicity grade", "setting": "[4]; 0.1 ug, 24 hrs + 96 hrs", "value": 0}, {"measurement": "morphological cytotoxicity grade", "setting": "[4]; 0.1 ug, 24 hrs + 120 hrs", "value": 0}, {"measurement": "morphological cytotoxicity grade", "setting": "[4]; 0.1 ug, Continuous 6 hrs", "value": 0}, {"measurement": "morphological cytotoxicity grade", "setting": "[4]; 0.1 ug, Continuous 24 hrs (r11, 24 hr exposure series)", "value": 1}, {"measurement": "morphological cytotoxicity grade", "setting": "[4]; 0.1 ug, Continuous 24 hrs (r17, long term continuous series)", "value": 0}, {"measurement": "morphological cytotoxicity grade", "setting": "[4]; 0.1 ug, Continuous 48 hrs", "value": 1}, {"measurement": "morphological cytotoxicity grade", "setting": "[4]; 0.1 ug, Continuous 72 hrs", "value": 1}, {"measurement": "morphological cytotoxicity grade", "setting": "[4]; 0.1 ug, Continuous 96 hrs", "value": 2}, {"measurement": "morphological cytotoxicity grade", "setting": "[4]; 0.1 ug, Continuous 120 hrs", "value": 1}, {"measurement": "morphological cytotoxicity grade", "setting": "[4]; 0.1 ug, Continuous 168 hrs", "value": 1}, {"measurement": "morphological cytotoxicity grade", "setting": "[4]; 0.1 ug, Continuous 216 hrs", "value": 1}, {"measurement": "morphological cytotoxicity grade", "setting": "[4]; 0.1 ug, Continuous 264 hrs", "value": 1}, {"measurement": "morphological cytotoxicity grade", "setting": "[4]; 1 ug, 5 min + 2 hrs", "value": 0}, {"measurement": "morphological cytotoxicity grade", "setting": "[4]; 1 ug, 5 min + 6 hrs", "value": 1}, {"measurement": "morphological cytotoxicity grade", "setting": "[4]; 1 ug, 5 min + 24 hrs", "value": 0.5}, {"measurement": "morphological cytotoxicity grade", "setting": "[4]; 1 ug, 5 min + 48 hrs", "value": 1}, {"measurement": "morphological cytotoxicity grade", "setting": "[4]; 1 ug, 5 min + 72 hrs", "value": 1}, {"measurement": "morphological cytotoxicity grade", "setting": "[4]; 1 ug, 5 min + 96 hrs", "value": 1}, {"measurement": "morphological cytotoxicity grade", "setting": "[4]; 1 ug, 5 min + 120 hrs", "value": 1}, {"measurement": "morphological cytotoxicity grade", "setting": "[4]; 1 ug, 24 hrs + 24 hrs", "value": 3}, {"measurement": "morphological cytotoxicity grade", "setting": "[4]; 1 ug, 24 hrs + 48 hrs", "value": 4}, {"measurement": "morphological cytotoxicity grade", "setting": "[4]; 1 ug, 24 hrs + 72 hrs", "value": 4}, {"measurement": "morphological cytotoxicity grade", "setting": "[4]; 1 ug, 24 hrs + 96 hrs", "value": 4}, {"measurement": "morphological cytotoxicity grade", "setting": "[4]; 1 ug, 24 hrs + 120 hrs", "value": 4}, {"measurement": "morphological cytotoxicity grade", "setting": "[4]; 1 ug, Continuous 6 hrs", "value": 3}, {"measurement": "morphological cytotoxicity grade", "setting": "[4]; 1 ug, Continuous 24 hrs (r11, 24 hr exposure series)", "value": 3}, {"measurement": "morphological cytotoxicity grade", "setting": "[4]; 1 ug, Continuous 24 hrs (r17, long term continuous series)", "value": 3}, {"measurement": "morphological cytotoxicity grade", "setting": "[4]; 1 ug, Continuous 48 hrs", "value": 3}, {"measurement": "morphological cytotoxicity grade", "setting": "[4]; 1 ug, Continuous 72 hrs", "value": 3}, {"measurement": "morphological cytotoxicity grade", "setting": "[4]; 1 ug, Continuous 96 hrs", "value": 3}, {"measurement": "morphological cytotoxicity grade", "setting": "[4]; 1 ug, Continuous 120 hrs", "value": 3}, {"measurement": "morphological cytotoxicity grade", "setting": "[4]; 1 ug, Continuous 168 hrs", "value": 4}, {"measurement": "morphological cytotoxicity grade", "setting": "[4]; 1 ug, Continuous 216 hrs", "value": 4}, {"measurement": "morphological cytotoxicity grade", "setting": "[4]; 1 ug, Continuous 264 hrs", "value": 4}, {"measurement": "cytotoxicity grade", "setting": "[4]; 1 µg/ml, anti-migration/contraction effective dose, grade 1 = minimal", "value": 1}, {"measurement": "morphological cytotoxicity grade", "setting": "[4]; 10 ug, 5 min + 2 hrs", "value": 0.5}, {"measurement": "morphological cytotoxicity grade", "setting": "[4]; 10 ug, 5 min + 6 hrs", "value": 4}, {"measurement": "morphological cytotoxicity grade", "setting": "[4]; 10 ug, 5 min + 24 hrs", "value": 4}, {"measurement": "morphological cytotoxicity grade", "setting": "[4]; 10 ug, 5 min + 48 hrs", "value": 4}, {"measurement": "morphological cytotoxicity grade", "setting": "[4]; 10 ug, 5 min + 72 hrs", "value": 4.5}, {"measurement": "morphological cytotoxicity grade", "setting": "[4]; 10 ug, 5 min + 96 hrs", "value": 5}, {"measurement": "morphological cytotoxicity grade", "setting": "[4]; 10 ug, 5 min + 120 hrs", "value": 5}]}
